Measured values: PubChem BioAssay AID328 (DTP/NCI, 2004)
“And” between values parts separate entries of the source, which are not always exact repeats. Equal entries are not always repeated. Inconclusive results and toxic doses are left out.

Tested on: BDF1 mice, P388 leukemia ip, median survival T/C
Experiment: NCI In Vivo Anticancer Drug Screen. Data for tumor model P388 Leukemia (intraperitoneal) in B6D2F1 (BDF1) mice
Details: endpoint: median survival time, higher = longer survival
Procedure, shortened: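 Read-out is survival of treated animals expressed relative to the vehicle group, as a T/C ratio.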

[1] = dose: 50.0 mg/kg/injection, schedule: Q01DX009 (ip), vehicle: saline with Tween-80
[2] = dose: 100.0 mg/kg/injection, schedule: Q01DX009 (ip), vehicle: saline with Tween-80
[3] = dose: 200.0 mg/kg/injection, schedule: Q01DX009 (ip), vehicle: saline with Tween-80

CO[C@H]1/C=C/O[C@@]2(C)Oc3c(C)c(O)c4c(O)c(c(/C=N/N5CCNCC5)c(O)c4c3C2=O)NC(=O)/C(C)=C\C=C\[C@H](C)[C@H](O)[C@@H](C)[C@@H](O)[C@@H](C)C(OC(C)=O)[C@@H]1C (some centres not stated)
T/C (dose: 50.0 mg/kg/injection, schedule: Q01DX009 (ip), vehicle: saline): 114 % of control | T/C (dose: 100.0 mg/kg/injection, schedule: Q01DX009 (ip), vehicle: saline): 114 % of control | T/C (dose: 200.0 mg/kg/injection, schedule: Q01DX009 (ip), vehicle: saline): 114 % of control

CC(=O)[C@H]1CC[C@H]2[C@@H]3C[C@H](C)C4=CC(=O)CC[C@]4(C)[C@@]3(F)[C@@H](O)C[C@]12C
T/C (dose: 25.0 mg/kg/injection, schedule: Q01DX009 (ip), vehicle: saline with Tween-80): 118 % of control | T/C [1]: 109 % of control | T/C [2]: 104 % of control and 109 % of control

CN1/C(=C/C=C/N=C(C#N)C#N)C(C)(C)c2ccccc21
T/C [1]: 104 % of control | T/C [2]: 96 % of control | T/C [3]: 96 % of control

O=CNC(Cc1ccc(N(CCCl)CCCl)cc1)C(=O)O (configuration not stated)
T/C (dose: 1.1 mg/kg/injection, schedule: Q01DX009 (ip), vehicle: Klucel (hydroxypropylcellulose) (HPC)): 107 % of control | T/C (dose: 1.46 mg/kg/injection, schedule: Q04DX003 (ip), vehicle: saline): 104 % of control | T/C (dose: 1.56 mg/kg/injection, schedule: Q01DX009 (ip), vehicle: saline): 118 % of control | T/C (dose: 1.7 mg/kg/injection, schedule: Q01DX009 (ip), vehicle: Klucel (hydroxypropylcellulose) (HPC)): 107 % of control | T/C (dose: 2.2 mg/kg/injection, schedule: Q04DX003 (ip), vehicle: saline): 100 % of control | T/C (dose: 3.13 mg/kg/injection, schedule: Q01DX009 (ip), vehicle: saline): 104 % of control | T/C (dose: 3.3 mg/kg/injection, schedule: Q04DX003 (ip), vehicle: saline): 118 % of control | T/C (dose: 5.0 mg/kg/injection, schedule: Q04DX003 (ip), vehicle: saline): 122 % of control | T/C (dose: 6.25 mg/kg/injection, schedule: Q01DX009 (ip), vehicle: Klucel (hydroxypropylcellulose) (HPC)): 175 % of control | T/C (dose: 6.25 mg/kg/injection, schedule: Q01DX009 (ip), vehicle: saline): 181 % of control | T/C (dose: 8.3 mg/kg/injection, schedule: Q04DX003 (ip), vehicle: Klucel (hydroxypropylcellulose) (HPC)): 109 % of control | T/C (dose: 11.0 mg/kg/injection, schedule: Q04DX003 (ip), vehicle: saline): 160 % of control | T/C (dose: 12.0 mg/kg/injection, schedule: Q04DX003 (ip), vehicle: Klucel (hydroxypropylcellulose) (HPC)): 118 % of control | T/C (dose: 12.5 mg/kg/injection, schedule: Q01DX009 (ip), vehicle: Klucel (hydroxypropylcellulose) (HPC)): 185 % of control | T/C (dose: 16.0 mg/kg/injection, schedule: Q01DX009 (ip), vehicle: Klucel (hydroxypropylcellulose) (HPC)): 160 % of control and 200 % of control | T/C (dose: 16.5 mg/kg/injection, schedule: Q04DX003 (ip), vehicle: saline): 163 % of control and 169 % of control | T/C (dose: 23.3 mg/kg/injection, schedule: Q01DX009 (ip), vehicle: Klucel (hydroxypropylcellulose) (HPC)): 170 % of control | T/C (dose: 25.0 mg/kg/injection, schedule: Q01DX009 (ip), vehicle: Klucel (hydroxypropylcellulose) (HPC)): 230 % of control and 220 % of control | T/C (dose: 25.0 mg/kg/injection, schedule: Q04DX003 (ip), vehicle: saline): 172 % of control and 200 % of control | T/C (dose: 29.0 mg/kg/injection, schedule: Q04DX003 (ip), vehicle: Klucel (hydroxypropylcellulose) (HPC)): 115 % of control | T/C (dose: 35.0 mg/kg/injection, schedule: Q01DX009 (ip), vehicle: Klucel (hydroxypropylcellulose) (HPC)): 245 % of control and 195 % of control | T/C (dose: 37.5 mg/kg/injection, schedule: Q04DX003 (ip), vehicle: saline): 234 % of control and 186 % of control | T/C (dose: 40.0 mg/kg/injection, schedule: Q04DX003 (ip), vehicle: Klucel (hydroxypropylcellulose) (HPC)): 204 % of control | T/C (dose: 44.0 mg/kg/injection, schedule: Q04DX003 (ip), vehicle: Klucel (hydroxypropylcellulose) (HPC)): 240 % of control | T/C (dose: 50.0 mg/kg/injection, schedule: Q01DX009 (ip), vehicle: Klucel (hydroxypropylcellulose) (HPC)): 272 % of control | T/C (dose: 60.0 mg/kg/injection, schedule: Q04DX003 (ip), vehicle: Klucel (hydroxypropylcellulose) (HPC)): 272 % of control | T/C (dose: 66.0 mg/kg/injection, schedule: Q04DX003 (ip), vehicle: Klucel (hydroxypropylcellulose) (HPC)): 280 % of control | T/C (dose: 100.0 mg/kg/injection, schedule: Q04DX003 (ip), vehicle: Klucel (hydroxypropylcellulose) (HPC)): 175 % of control | T/C (dose: 100.0 mg/kg/injection, schedule: Q04DX003 (ip), vehicle: saline with Tween-80): 95 % of control | T/C (dose: 132.0 mg/kg/injection, schedule: Q04DX003 (ip), vehicle: Klucel (hydroxypropylcellulose) (HPC)): 250 % of control | T/C (dose: 200.0 mg/kg/injection, schedule: Q04DX003 (ip), vehicle: Klucel (hydroxypropylcellulose) (HPC)): 185 % of control

Cc1cccc(NC2=C(C#N)C(=O)NC3(CCCC3)S2)c1
T/C [1]: 119 % of control | T/C [2]: 103 % of control | T/C [3]: 100 % of control

Cc1cc(N(CCCl)CCCl)c(C)cc1NC(=O)c1ccccc1
T/C (dose: 12.5 mg/kg/injection, schedule: Q01DX009 (ip), vehicle: saline with Tween-80): 195 % of control | T/C (dose: 16.5 mg/kg/injection, schedule: Q04DX003 (ip), vehicle: Klucel (hydroxypropylcellulose) (HPC)): 190 % of control | T/C (dose: 25.0 mg/kg/injection, schedule: Q04DX003 (ip), vehicle: Klucel (hydroxypropylcellulose) (HPC)): 118 % of control | T/C (dose: 37.5 mg/kg/injection, schedule: Q04DX003 (ip), vehicle: Klucel (hydroxypropylcellulose) (HPC)): 113 % of control
